# Assay results published in ChEMBL document CHEMBL3997763 (Medchemcomm, 2016).
# Active and inactive are the calls of the source. No cut-off for these calls is given here.
# Experiments:
# [1] = molecular target: T1, 3-hydroxy-3-methylglutaryl-coenzyme A reductase (Homo sapiens) (UniProt P04035); experiment: Inhibition of human HMG-CoA reductase catalytic domain at 10 uM using HMG-CoA as substrate in presence of NADPH by colorimetric method relative to control
# T1 sequence (whole entry): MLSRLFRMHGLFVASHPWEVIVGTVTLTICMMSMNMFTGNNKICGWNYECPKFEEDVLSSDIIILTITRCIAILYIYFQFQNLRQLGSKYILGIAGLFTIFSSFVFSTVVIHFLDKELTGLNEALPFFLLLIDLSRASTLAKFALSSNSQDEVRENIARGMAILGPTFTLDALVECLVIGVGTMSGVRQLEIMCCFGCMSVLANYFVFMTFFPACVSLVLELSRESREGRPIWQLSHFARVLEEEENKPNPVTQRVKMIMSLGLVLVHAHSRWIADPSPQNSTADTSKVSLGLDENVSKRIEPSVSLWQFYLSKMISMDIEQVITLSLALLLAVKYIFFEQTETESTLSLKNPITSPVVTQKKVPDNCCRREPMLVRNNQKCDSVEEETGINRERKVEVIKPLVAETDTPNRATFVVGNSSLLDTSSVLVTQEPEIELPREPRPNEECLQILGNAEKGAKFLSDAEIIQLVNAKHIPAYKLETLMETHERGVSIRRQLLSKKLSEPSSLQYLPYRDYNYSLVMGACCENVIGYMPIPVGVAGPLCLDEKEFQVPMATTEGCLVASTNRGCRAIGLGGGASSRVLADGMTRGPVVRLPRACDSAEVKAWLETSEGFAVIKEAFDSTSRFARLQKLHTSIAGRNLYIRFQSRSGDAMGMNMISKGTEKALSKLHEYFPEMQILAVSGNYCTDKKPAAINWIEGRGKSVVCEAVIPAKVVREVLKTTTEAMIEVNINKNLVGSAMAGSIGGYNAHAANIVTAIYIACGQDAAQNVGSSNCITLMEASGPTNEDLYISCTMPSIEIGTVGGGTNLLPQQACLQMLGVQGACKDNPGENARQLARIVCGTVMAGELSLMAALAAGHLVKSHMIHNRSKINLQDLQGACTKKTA
# [2] = molecular target: T1, 3-hydroxy-3-methylglutaryl-coenzyme A reductase (Homo sapiens); experiment: Inhibition of human HMG-CoA reductase catalytic domain at 5 uM using HMG-CoA as substrate in presence of NADPH by colorimetric method relative to control
# [3] = molecular target: T1, 3-hydroxy-3-methylglutaryl-coenzyme A reductase (Homo sapiens); experiment: Inhibition of human HMG-CoA reductase catalytic domain using HMG-CoA as substrate in presence of NADPH by colorimetric method
# Rattus norvegicus [4] = experiment: Antihyperlipidemic activity in triton WR-1339 induced Charles Foster rat hyperlipidemia model assessed as inhibition of triglyceride level in serum at 150 mg/kg, po administered simultaneously with triton WR-1339 after 18 hrs by enzymatic method relative to control; assay type: functional
# Rattus norvegicus [5] = experiment: Antihyperlipidemic activity in triton WR-1339 induced Charles Foster rat hyperlipidemia model assessed as increase in HDL-C level in serum at 150 mg/kg, po administered simultaneously with triton WR-1339 after 18 hrs by enzymatic method relative to control; assay type: functional
# Rattus norvegicus [6] = experiment: Toxicity in HFD-induced Charles Foster rat chronic hyperlipidemia model assessed as food intake at 100 mg/kg administered via oral gavage for 30 days simultaneously with high fat diet (reference value: 9.81 +/- 0.61 g/day); assay type: organism-based; settings: in vivo, 720 h
# Rattus norvegicus [7] = experiment: Hypolipidemic activity in HFD-induced Charles Foster rat chronic hyperlipidemia model assessed as reduction in serum total cholesterol level at 100 mg/kg administered via oral gavage for 30 days simultaneously with high fat diet by enzymatic method relative to HFD treated vehicle; assay type: functional; settings: 720 h
# Rattus norvegicus [8] = experiment: Hypolipidemic activity in HFD-induced Charles Foster rat chronic hyperlipidemia model assessed as reduction in serum AST level at 100 mg/kg administered via oral gavage for 30 days simultaneously with high fat diet by colorimetric method relative to HFD treated vehicle; assay type: functional; settings: 720 h
# Rattus norvegicus [9] = experiment: Hypolipidemic activity in HFD-induced Charles Foster rat chronic hyperlipidemia model assessed as reduction in liver total cholesterol level at 100 mg/kg administered via oral gavage for 30 days simultaneously with high fat diet by enzymatic method relative to HFD treated vehicle; assay type: functional; settings: 720 h
# Rattus norvegicus [10] = experiment: Hypolipidemic activity in HFD-induced Charles Foster rat chronic hyperlipidemia model assessed as reduction in liver triglyceride level at 100 mg/kg administered via oral gavage for 30 days simultaneously with high fat diet by enzymatic method relative to HFD treated vehicle; assay type: functional; settings: 720 h
# Rattus norvegicus [11] = experiment: Hypolipidemic activity in HFD-induced Charles Foster rat chronic hyperlipidemia model assessed as increase in fecal excretion of cholic acid at 100 mg/kg administered via oral gavage for 30 days simultaneously with high fat diet by enzymatic method relative to HFD treated vehicle; assay type: functional
# Rattus norvegicus [12] = experiment: Hypolipidemic activity in HFD-induced Charles Foster rat assessed as reduction in serum LDL-TC at 100 mg/kg administered as single dose via oral gavage for 30 days simultaneously with high fat diet; assay type: functional, organism-based
# Rattus norvegicus [13] = experiment: Hypolipidemic activity in HFD-induced Charles Foster rat assessed as increase in serum HDL-TC at 100 mg/kg administered as single dose via oral gavage for 30 days simultaneously with high fat diet; assay type: functional, organism-based
# Rattus norvegicus [14] = experiment: Hypolipidemic activity in HFD-induced Charles Foster rat assessed as increase in LCAT activity at 100 mg/kg administered as single dose via oral gavage for 30 days simultaneously with high fat diet by photometric method; assay type: functional, organism-based
# Rattus norvegicus [15] = experiment: Hypolipidemic activity in HFD-induced Charles Foster rat assessed as increase in human I125-LDL binding to rat liver plasma membrane at 100 mg/kg administered as single dose via oral gavage for 30 days simultaneously with high fat diet by minigamma counting; assay type: functional, organism-based
# [16] = Stability of the compound in simulated gastric fluid at 10 uM up to 60 mins by LC-MS/MS analysis
# [17] = Stability of the compound in simulated intestinal fluid at 10 uM up to 120 mins by LC-MS/MS analysis
# Liver [18] = experiment: Stability in Sprague-Dawley rat liver microsomes at 10 uM in absence of NADPH after 5 to 90 mins by LC-MS/MS analysis; assay type: ADME, microsome
# [19] = Cmax in Sprague-Dawley rat at 100 mg/kg, po administered as single dose by LC-MS/MS analysis; assay type: ADME, organism-based; parameters: dose 100 mg/kg, route oral; settings: in vivo
# Rattus norvegicus [20] = experiment: Antihyperlipidemic activity in po dosed triton WR-1339 induced Charles Foster rat hyperlipidemia model assessed as inhibition of phospholipid level in serum administered simultaneously with triton WR-1339 after 18 hrs by enzymatic method relative to control; assay type: functional, organism-based
# Rattus norvegicus [21] = experiment: Antihyperlipidemic activity in po dosed triton WR-1339 induced Charles Foster rat hyperlipidemia model assessed as inhibition of triglyceride level in serum administered simultaneously with triton WR-1339 after 18 hrs by enzymatic method relative to control; assay type: functional, organism-based
# Liver [22] = experiment: Intrinsic clearance in Sprague-Dawley rat liver microsomes at 10 uM in absence of NADPH after 5 to 90 mins by LC-MS/MS analysis; assay type: ADME, microsome
# Rattus norvegicus [23] = experiment: Increase in phospholipid level in serum of triton WR-1339 induced Charles Foster rat hyperlipidemia model at 50 mg/kg, po administered simultaneously with triton WR-1339 after 18 hrs by enzymatic method relative to control; assay type: functional
smiles,measurement,setting,value
COc1ccc(-c2cc3cc(C(c4c[nH]c5ccccc45)c4c[nH]c5ccccc45)cc(C(C)(C)C)c3oc2=O)cc1OC,inhibition,[1],56%
same,inhibition,[2],32%
same,inhibition,[3],Dose-dependent effect
same,inhibition in vivo at 150 mg/kg,Rattus norvegicus [4],33%
same,Activity,Rattus norvegicus [5],25%
same,Activity,Rattus norvegicus [6],9.63 g/day
same,inhibition in vivo at 100 mg/kg,Rattus norvegicus [7],24%
same,inhibition in vivo at 100 mg/kg,Rattus norvegicus [8],28%
same,inhibition in vivo at 100 mg/kg,Rattus norvegicus [9],27%
same,inhibition in vivo at 100 mg/kg,Rattus norvegicus [10],29%
same,Activity,Rattus norvegicus [11],31%
same,Activity,Rattus norvegicus [12],Active
same,Activity,Rattus norvegicus [13],Active
same,Activity,Rattus norvegicus [14],Active
same,Activity,Rattus norvegicus [15],Active
same,Stability,[16],Stable
same,Stability,[17],Stable
same,Stability,Liver [18],Stable
same,Cmax,[19],79 ng/mL
same,inhibition,Rattus norvegicus [20],Dose-dependent effect
same,inhibition,Rattus norvegicus [21],Dose-dependent effect
same,CLH,Liver [22],5.8 µL/min/mg
same,Activity,Rattus norvegicus [23],22%
